Consider 3 compounds from article PMC9538324 (Journal of medical virology, 2022).

Read-outs that look alike come from different tables or passages of the source.

Data set [1] deals with SARS-CoV-2. As to conditions: A549-ACE2 cells; cited from earlier work.
For data set [2], the system named is SARS-CoV-2. The conditions noted are these: Calu-3 cells; cited from earlier work.
Data set [3] concerns A549-ACE2 cells.
Data set [4] deals with rVSV-EBOV. Briefly: microbe, parasite or virus in culture. The class given is cell-based, Ebola virus. As to conditions: Zaire ebolavirus, A549-ACE2, read-out: EC50 against rVSV-EBOV.
Data set [5] deals with Wuhan PV. The class given is cell-based, SARS-CoV-2.
Data set [6] deals with SARS-CoV-2. As to conditions: A549-ACE2 cells, RT-PCR and plaque assay, Institut Pasteur; cited from earlier work.
Data set [7] relates to SARS-CoV-2. As to conditions: Vero cells; cited from earlier work.
The test system of data set [8] is Vero cells. The conditions noted are these: cited from earlier work.
For data set [9], the system named is Omicron PV. The class given is cell-based, SARS-CoV-2.
Data set [10] relates to SARS-CoV-2. The conditions noted are these: Huh7 cells; cited from earlier work.
The subject of data set [11] is SARS-CoV-2. The conditions noted are these: Vero cells, anti-NP antibody, Mount Sinai; cited from earlier work.
In data set [12] the test system is AXL. As to conditions: read-out: IC50 against AXL; cited from earlier work.
In data set [13] the test system is SARS-CoV-2 (USA-WA1 strain). Put plainly: microbe, parasite or virus in culture. The class given is cell-based. As to conditions: Severe acute respiratory syndrome coronavirus 2, A549-ACE2, read-out: EC50 against SARS-CoV-2.
Data set [14] can be described thus: in vitro. As to conditions: human.
Data set [15] relates to VSV-G. The class given is cell-based, Vesicular stomatitis virus.
For data set [16], the system named is A549-ACE2 cells. Briefly: MTT cell viability assay. As to conditions: 0.63 μM.
For data set [17], the system named is Delta PV. The class given is cell-based, SARS-CoV-2.
Data set [18] has as its system A549-ACE2 cells. Put plainly: cells. The conditions noted are these: Homo sapiens, A549-ACE2, read-out: EC50 for PLD induction.
Data set [19] relates to A549-ACE2 cells. The conditions noted are these: A549-ACE2 infection assay.
[20] abbreviates: A549-ACE2 cells, compared with amodiaquine.

What is called EC50 is the concentration needed to bring the measured effect to its halfway point. Usually CC50 stands for the concentration at which the toxic effect on the cells reaches its halfway point. The IC50 is the concentration needed to halve the response being measured. One may read the fold induction as the ratio of treated to control signal. Lower therefore signals little rise in signal. `CCc1nc(C(N)=O)c(Nc2ccc(N3CCC(N4CCN(C)CC4)CC3)c(OC)c2)nc1NC1CCOCC1` [Gilteritinib, gilteritinib]: the “lowest concentration tested showing inhibition of virus replication” value in [1] was 0.5 µM. Besides, in data set [2], the anti-SARS-CoV-2 activity result is reported as “no detectable activity”. The “PLD induction (in words)” value in [3] (setting [20]) is “induces a small amount of PLD”. For the same compound, the EC50 was 0.25 µM in data set [4]; 0.06 to 0.12 µM in [6]; 6.75 µM in data set [7]; 0.2 µM in [10]; roughly 0.8 µM in [11]; roughly 0.1 µM in [13]. Also, the EC50 in [18] came out at 0.39 µM. Besides, the “Wuhan PV infection compared to VSV-G” value in data set [5] is reported as “small decrease”. In addition, in data set [8], the CC50 was 37.2 µM. Moreover, the “infection inhibition against Omicron PV compared to VSV-G” value in data set [9] is “significant infection inhibition”. Also, the IC50 in data set [12] is 0.041 µM. Also, the fold induction in data set [14] was found to be 15. The “VSV-G infection relative to the level in imatinib- or nintedanib-treated cells” value in data set [15] was “around 50%”. In addition, in data set [16], the “reduction of cell viability by MTT assay” value was “approximately 30%”. For the same compound, the “Delta PV infection compared to VSV-G” value in [17] was “small decrease”.

For the compound `Cc1ccc(NC(=O)c2ccc(CN3CCN(C)CC3)cc2)cc1Nc1nccc(-c2cccnc2)n1` [Imatinib, imatinib], the “PLD induction (in words)” value in data set [3] is given as “strong PLD inducers”.

Consider `COC(=O)c1ccc2c(c1)NC(=O)/C2=C(\Nc1ccc(N(C)C(=O)CN2CCN(C)CC2)cc1)c1ccccc1` [Nintedanib, nintedanib], for which, in [3] (setting [20]), the “PLD induction (in words)” value is listed as “strong PLD inducers”. Further, in data set [19], the “cytotoxicity (in words)” value was “little cytotoxicity”.
